One series deals with Haemophilus influenzae. As to the kind of experiment: Cell viability assay for H. influenzae. In kind it is cell-based. To be noted: 24 hours, BHI with 7.5 μM hemin. Here is the method: Cell viability assays for H. influenza and P. gingivalis: Haemophilus influenzae Rd [KW20] was obtained from ATCC (51907). Standard growth and culturing techniques were followed as described previously^92. Cultures were grown in Brain Heart Infusion broth (BHI) supplemented with 7.5 μM of hemin and 2 μg/ml NAD with or without the addition of peptide for 24 hours. The number of viable cells for every reaction mixture was then determined by serially diluting and spotting 10-μl aliquots in triplicates on BHI agar plates supplemented with 15 μM hemin and 3 μM NAD. Porphyromonas gingivalis 2561 was obtained from ATCC (33277). Pre-reduced, anaerobically sterilized Brucella Broth and BRU—Brucella Blood Agar—were purchased from Anaerobe systems (CA, USA). They were opened just before use. Static cultures and plates were incubated at 37° C. in an incubation chamber from BD GasPak™ EZ Container Systems. Anaerobic conditions were maintained by using BD BBL CO2 gas generators and BD BB GasPak™ CO2 indicators. Cultures were grown anaerobically in Brucella Broth with or without addition of peptides for 48 hours and viable cells for every reaction mixture were then determined by serially diluting and spotting 10-μ1 aliquots in triplicates on Brucella Blood Agar.

In the next series the test system is S. meliloti. As to the kind of experiment: Radioactive 55Fe uptake assay. In kind it is cell-based, Sinorhizobium meliloti. To be noted: 2 μM, medium with sufficient iron. As for the experimental part:
Iron uptake assay: Radioactive ^55Fe uptake assays were performed as described previously^66 with some modifications. Cells were grown in LB to an O.D.600 nm of 0.2. 20 ml cultures were then spun down, and suspended in 20 ml minimal media with 5 μM FeSO4 for 1 hour. 2 μM NCR247 and then 100 μM sodium ascorbate was added, and cells were incubated for additional 30 mins. At time 0, 1 μM^55FeCl3 mixed with ascorbate was added. At given time points, 1 ml aliquots were taken and quenched in 3 ml of ice-cold quench buffer (0.1M Tris, 1 mM ascorbate, and 100 μM FeSO4, pH 6.0). The cells were collected immediately after quenching on 0.45-μm filters, presoaked in quench buffer using a Millipore sigma 1225 vacuum filtration unit. The radioactive ^55Fe content of the filters with cells was counted using a scintillation counter. Internalized ^55Fe levels were normalized to the protein levels in the cell.

For series [1], the system named is iron uptake genes (hmuP, foxA, fhuP, rhrA, fbpA), rirA. The series is described as follows: qRT-PCR of iron-related genes in S. meliloti. The note with it: 30 mins; for expression of iron uptake genes: 2 μM (NSR247 up to 15 uM). It is filed as cell-based, Sinorhizobium meliloti. Here is the method:
(§1) RNA isolation and qRT-PCR analysis: Cells were grown in LB until they reached an O.D.600 nm of 0.2. Then cells were spun down and suspended in minimal media with or without appropriate FeSO4 concentrations for 1 hour. NCR247 was then added and 5 ml of appropriate cultures were spun down at given time intervals. Total RNA was extracted using Trizol™ (Thermo Fisher Scientific) method. Qiagen RNeasy™ kit was used to purify the RNA. On-column DNA removal was carried out using DNase I from NEB. 500 ng of each RNA sample was used to make cDNA using the iScript™ cDNA synthesis kit (Biorad). qRT-PCRs were performed as described previously^86. The standard curve method was used for relative quantification. In short, a standard curve was generated for each gene of interest (including SMc00128) by setting up qpCR reactions to amplify increasing amounts of S. meliloti Rm 1021 genomic DNA. […] This curve was then used for extrapolating relative expression level of each gene of interest in a particular sample to obtain the starting quantities (SQ). This value is then normalized to the SQ values of SMc00128 obtained for respective sample. […] These normalized values are then expressed as an average of triplicates, with standard deviation (s.d.) represented by the error bars.
In general terms: In qPCR the cycle at which signal appears reflects the starting amount.

A short description of series [2]: Peroxidase assay of heme on TMB. It is filed as biochemical. To be noted: 5 μM NCR247 + 5 μM heme. Here is the method: Peroxidase assay: Pierce TMB Substrate Kit was used to measure the peroxidase activity of the heme and equimolar NCR247 was added to heme according to the manufacturer's instructions. In short, 100 μL of TMB substrate solution (1:1 of TMB substrate and Peroxide solution) was added to 96 well black, polystyrene flat bottomed, non-treated, sterile plates. 5 μM heme or 5 μM NCR247+5 μM heme was added to the wells and the progression of the reaction was measured in a Tecan Spark™ plate reader. UV-Vis absorption values at 370 nm and 652 nm are noted every minute over a time period of 16 mins.

The next series has as its system Caenorhabditis elegans. The series is described as follows: C. elegans growth. The note with it: in vivo. The source says:
When grown in the lab, the widely-studied model nematode Caenorhabditis elegans normally acquires heme by ingesting bacteria and breaking them down to release heme. […] A new class of heme importer was identified in C. elegans by analyzing heme-responsive proteins and orthologs have been subsequently identified in other parasites such as the kinetoplastid parasite discussed above.

The next series deals with ctrA. As to the kind of experiment: qRT-PCR of ctrA. To be noted: 2 μM, 30 mins; listed as L-NCR247. It is filed as cell-based, Sinorhizobium meliloti. As for the experimental part:
FIG. 16. […] The data are expressed as starting quantities (SQ) of respective mRNAs normalized to the control gene SMc00128 and are presented as average of three technical replicates
as §1, with “(SQ).” for “(SQ). This value is then normalized to the SQ values of SMc00128 obtained for respective sample.”, “bars. […]” for “bars.”

The next series concerns the target T1, Aβ (1-42)-heme complex (Homo sapiens, UniProt P05067).
T1 construct: equimolar addition of NCR247 to the Aβ (1-42) amyloid peptide-heme complex; purchased Genscript
As to the kind of experiment: Peroxidase assay of Aβ-heme complex on TMB. In kind it is biochemical. To be noted: equimolar addition of NCR247.

The target of the next series is T2, Aβ-heme complex (Homo sapiens, UniProt P05067).
T2 construct: equimolar addition of NCR247 to the Aβ (1-42) amyloid peptide-heme complex; purchased Genscript
T2 sequence (P05067 672-713, one chain of several): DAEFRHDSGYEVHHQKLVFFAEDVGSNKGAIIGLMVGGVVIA
The series is described as follows: UV-Vis spectrum of Aβ-heme complex with NCR247. It is filed as binding. As for the experimental part: FIG. 4. […] In a, b and e, data are presented as mean of three independent replicates ±s.d. In a and b ****P<0.0001 vs untreated sample; two-way analysis of variance (ANOVA) with multiple comparisons.
UV-VIS spectroscopy: All absorption spectra were collected in a Tecan Spark™ 10 M microplate reader using black polystyrene 96-well plates. Absorbance from 300 nm to 700 nm was recorded with a 5 nm interval after an initial shaking at 100 rpm for 15 secs. Heme binding to synthesized peptide: Water (pH 7.4) was used in all reactions and was first added to the wells. Peptides solubilized in water were added and then heme solubilized in 0.1 M NaOH was added, mixed thoroughly and measurements were taken immediately. Peptide and heme volume were kept to a maximum of 5 ul in volume. For all the absorption curves (except Extended FIG. 3a) […] was used. The same was also repeated with 0.1 M Tris buffer (pH 7.4) as a base buffer instead of water.

From patent US12065468B2, “Heme-binding small peptide” (priority 2021, dated 2024) come the findings set out here.

“Also recorded” adds a separate entry of the source.

T1 sequence (P05067 672-713 limits assumed, one chain of several): as the sequence (P05067 672-713, one chain of several) above

On to RNGCIVDPRCPYQQCRRPLYCRRR [NCR247], for which the “growth / viable cell number of H. influenzae” value with Haemophilus influenzae is listed as “can prevent the growth; also recorded: can block the growth”; in the series on Haemophilus influenzae (listed as L-NCR247), “Reduction of viable cell number”. Besides, the “uptake of 55Fe” value with S. meliloti is given as “markedly increased the import of ^55Fe”. Also, the “expression of iron uptake genes” value in series [1] is given as “increase in transcript levels of iron uptake genes”; in series [1] (listed as L-NCR247), “increase in expression of hmuP”. Besides, in series [1] (2 μM), the “expression of rirA” value is reported as “rirA transcription was reduced”. The “peroxidase activity of heme” value in series [2] is given as “intrinsic peroxidase activity of heme is quenched”. Further, the water solubility entry in the series “Water solubility” is on record as “highly water soluble”. Moreover, the “growth of C. elegans” value in the series on Caenorhabditis elegans is recorded as “can block the growth; also recorded: blocks growth of the nematode C. elegans, arresting them in the L1 stage”. The “expression of ctrA” value in the series on ctrA is listed as “lowers the expression of CtrA; also recorded: decrease in expression of ctrA”. Moreover, the “peroxidase activity of Aβ (1-42)-heme complex” value at Aβ (1-42)-heme complex is given as “quenches its peroxidase activity”. Further, at Aβ-heme complex, the “removal of heme from Aβ-heme complex” value is “can strip the heme out of the Aβ-heme complex”.
